According to PMC8878317, “Chemogenomics identifies acetyl-coenzyme A synthetase as a target for malaria treatment and prevention” (Cell Chemical Biology, 2022):

Test system: P. falciparum 3D7 parasites
Assay: Metabolomic profiling of compound-treated parasites (LC/MS);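 on Metabolite data: 3-Phosphoglycerate: Log2 fold change in abundance versus untreated parasite controls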;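 on Metabolite data: Myo-Inositol: Log2 fold change in abundance versus untreated parasite controls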;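 on Metabolite data: N-Carbamoyl-L-Aspartate: Log2 fold change in abundance versus untreated parasite controls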;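 on Metabolite data: Nicotinate: Log2 fold change in abundance versus untreated parasite controls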
Format: cell-based
Design: Metabolite data: dTMP / Metabolite data: GMP / Metabolite data: S-Adenosyl-L-Homocysteine / Metabolite data: 1_3-Bisphosphoglyceric acid: scale not given here
Experimental: The metabolite extraction protocol was performed as described elsewhere ([Allman et al., 2016]). Briefly, 1 mL of trophozoites that were magnetically purified to a concentration of 1×10^8 parasites/mL were placed into wells with 4 mL of RPMI 1640 media and allowed to recover for one hour. […] The culture was incubated for another 2.5 hr. The culture was centrifuged and quenched with 90% methanol containing 0.25 μM ^13C,^15N-Labeled-Aspartate, vortexed, and centrifuged. The supernatant was transferred to a new tube and dried for storage. Prior to analysis, the samples were resuspended to a final concentration of 1×10^8 parasites/mL in a solution of 3% methanol:water containing 1 μM chlorpropamide as an internal standard.
The chromatographic conditions used in this experiment were performed with slight modifications from previous methods ([Zhang et al., 2018]). Briefly, a Waters XSelect HSS C18 column was used on a gradient reverse-phase chromatographic configuration with 97:3 water:methanol with 10 mM tributylamine and 15 mM acetic acid (solvent A) and methanol (solvent B). A Thermo-Scientific Exactive Plus Orbitrap mass spectrometer was operated in negative mode for the detection of the metabolites. Peak picking and integration were performed using El-Maven LC/MS data processing software. The peak data were then exported to Excel where metabolite areas were normalized to the internal standards, blank subtracted, and averaged by condition.

With O=C(NNC(=O)c1csnn1)c1ccc(Cl)cc1 [MMV084978-1] the “Metabolite data: 1_3-Bisphosphoglyceric acid” value was 0.1496, the “Metabolite data: 2_3-Diphosphoglyceric acid” value was 0.1496 and the “Metabolite data: 3-Phosphoglycerate” value was 0.2498. The “Metabolite data: 4-Aminobutyrate” value was -0.07219, the “Metabolite data: 4-Phosphopantothenate” value was -0.08759 and the “Metabolite data: 4-phosphopantetheine” value was -0.1079. For the same compound, the “Metabolite data: 5-aminopentanoic acid” value was 0, the “Metabolite data: 5-phosphoribosyl-1-pyrophosphate” value was 0 and the “Metabolite data: 6-Phospho-D-Gluconate” value was -0.01315. The “Metabolite data: ADP-D-Glucose” value was 0.08201, the “Metabolite data: Acetyl-CoA” value was -3.327 and the “Metabolite data: Acetyllysine” value was -0.5311. For the same compound, the “Metabolite data: Aconitate” value was -0.1935, the “Metabolite data: CDP” value was 1.05 and the “Metabolite data: CDP-Ethanolamine” value was 0.1123. For the same compound, the “Metabolite data: CDP-choline” value was -0.1263, the “Metabolite data: CMP” value was 1.555 and the “Metabolite data: CTP” value was 0.5959. For the same compound, the “Metabolite data: Citrate/Isocitrate” value was -0.25, the “Metabolite data: Cyclic-AMP” value was -0.2917 and the “Metabolite data: Dihydroorotate” value was -1.467. For the same compound, the “Metabolite data: FAD” value was 0.02838, the “Metabolite data: FMN” value was 0.1073 and the “Metabolite data: Fructose-1,6-Bisphosphate” value was -0.1507. The “Metabolite data: Fumarate” value was -0.2504, the “Metabolite data: GDP” value was 0.1753 and the “Metabolite data: GMP” value was 0.5608. For the same compound, the “Metabolite data: GTP” value was 0.3192, the “Metabolite data: Glucose-1/6-Phosphate” value was 0 and the “Metabolite data: Glutathione Disulfide” value was -0.0421. The “Metabolite data: Hexose” value was 0.4607, the “Metabolite data: Hydroxyisocaproic acid” value was 0 and the “Metabolite data: Indole” value was -0.02938. The “Metabolite data: Ketoleucine” value was 0, the “Metabolite data: L-arginino-succinate” value was -0.1583 and the “Metabolite data: Lactate” value was -0.4518. For the same compound, the “Metabolite data: Malate” value was -0.3092, the “Metabolite data: Myo-Inositol” value was -0.662 and the “Metabolite data: N-Acetyl-Glutamate” value was -1.234. The “Metabolite data: N-Acetyl-L-Alanine” value was -0.1942, the “Metabolite data: N-Acetyl-L-Ornithine” value was -0.6079 and the “Metabolite data: N-Carbamoyl-L-Aspartate” value was -1.86. The “Metabolite data: NAD+” value was -0.05754, the “Metabolite data: NADH” value was -0.03997 and the “Metabolite data: NADP+” value was -0.01332. For the same compound, the “Metabolite data: NADPH” value was -0.02772, the “Metabolite data: Nicotinate” value was -0.2079 and the “Metabolite data: Octulose 8/1-Phosphate” value was 0.04337. For the same compound, the “Metabolite data: Orotate” value was -1.48, the “Metabolite data: PD” value was -0.5076 and the “Metabolite data: PE” value was -0.5728. For the same compound, the “Metabolite data: PEEK” value was -0.4082, the “Metabolite data: Phenol Red” value was -0.09162 and the “Metabolite data: Pyroglutamic acid” value was -0.04117. For the same compound, the “Metabolite data: S-Adenosyl-L-Homocysteine” value was -0.1413, the “Metabolite data: S-methyl-5'-thioadenosine” value was -0.2314 and the “Metabolite data: SD” value was -0.5901. The “Metabolite data: Sedoheptulose Bisphosphate” value was -0.08586, the “Metabolite data: UDP” value was 0.6291 and the “Metabolite data: UDP-D-Glucose” value was 0.0869. For the same compound, the “Metabolite data: UDP-D-Glucuronate” value was 0.1009, the “Metabolite data: UDP-N-Acetyl-Glucosamine” value was -0.1998 and the “Metabolite data: UMP” value was 1.083. The “Metabolite data: UTP” value was 0.2924, the “Metabolite data: a-ketoglutarate” value was -0.2708 and the “Metabolite data: acetyl-aspartate” value was -0.01834. The “Metabolite data: arginine” value was 0.1881, the “Metabolite data: asparagine” value was 0.1209 and the “Metabolite data: aspartate” value was 0.4643. For the same compound, the “Metabolite data: biotin” value was -0.04446, the “Metabolite data: chlorpropamide” value was -1.60E-16 and the “Metabolite data: coenzyme A” value was -0.006892. The “Metabolite data: dAMP” value was 0.6117, the “Metabolite data: dATP” value was 0.1596 and the “Metabolite data: dCDP” value was -0.02418. The “Metabolite data: dCMP” value was 0.3076, the “Metabolite data: dCTP” value was 0.1432 and the “Metabolite data: dGDP/ADP” value was -0.04263. The “Metabolite data: dGMP/AMP” value was -0.1821, the “Metabolite data: dGTP/ATP” value was 0.1752 and the “Metabolite data: dTDP” value was 0.5413. The “Metabolite data: dTMP” value was 0.4313, the “Metabolite data: dTTP” value was 0.1959 and the “Metabolite data: folate” value was -0.04496. For the same compound, the “Metabolite data: glucono-lactone” value was -0.03642, the “Metabolite data: glutamate” value was -0.04994 and the “Metabolite data: glutamine” value was 0.01906. For the same compound, the “Metabolite data: glutathione” value was -0.07032, the “Metabolite data: histidine” value was -0.03336 and the “Metabolite data: hydroxyproline/Aminolevulinate” value was -0.01874. The “Metabolite data: isoleucine” value was 0.003243, the “Metabolite data: leucine” value was -0.0173 and the “Metabolite data: maleic acid” value was -0.282. The “Metabolite data: methionine” value was 0.1423, the “Metabolite data: nicotinamide mononucleotide” value was -0.4705 and the “Metabolite data: orotidine-5'-phosphate” value was -2.397.
